Values of other authors in US20230172854A1 (UNIWERSYTET HUMANISTYCZNO-PRZYRODNICZY IM JANA DLUGOSZA W …, priority 2020, published 2023).

Details: estimated

CCCCC(=O)N(Cc1ccc(-c2ccccc2-c2nnn[nH]2)cc1)[C@H](C(=O)O)C(C)C [valsartan]
bioavailability: 25%
